Earlier results, collected in patent publication US10174037B2, “Dihydropyrazolopyrimidinone compounds as PDE2 inhibitors” (Merck Sharp & Dohme Corp., priority 2015, dated 2019).

How the values were obtained:
other PDE isoforms = details: reported in Brandon et al. 2007; cited from earlier work
[1] = reported in Brandon et al. 2007; cited from earlier work

COc1ccc(Cc2nn3c([C@@H](CCCc4ccccc4)[C@@H](C)O)nc(C)c3c(=O)[nH]2)cc1OC [BAY 60-7550]
potency at other PDE isoforms (other PDE isoforms): significant potency
brain penetration [1]: limited
